According to patent publication US6632797B2, “Method of treating angiogenesis” (priority 1996, dated 2003):

Key:
[1] = test system: Nerve growth factors (NGFA from Vipera lebetina Venom and NGFB from Mouse Submaxillary glands); assay: Interaction between NGF and radioactive IP3, co-elution on Sephadex G-25 / Heparin-Sepharose columns; format: binding; conditions: co-elution from Sephadex G-25, 50 mM Hepes pH 7.4
Experimental: The mixture was incubated for 1 hour at 4° C.
This type of column fractionate substances according to molecular weight.
The incubate was loaded on the column and was eluted with 50 mM Hepes in fractions of 0.4 ml each.
To further determine the interaction, the fractions with radioactivity and UV-absorbance were loaded on a Heparin-Sepharose CL-6B column (Pharmacia Biotech, Sweden) (volume 25 ml, height 20 cm). […] Elution was performed with 50 mM Hepes, pH 7.4 and each fraction of 1 ml was collected for determination of radioactivity and UV absorbance. A peak with radioactivity but without UV absorption was loaded on a similar Sephadex G-25 column as described above and was eluted with the same type of buffer. Maximum radioactivity was obtained in fraction number 13 i.e. in this case the substance with radioactivity was more retained on the column.

[2] = molecular target: T1, Fibroblast growth factor acidic (aFGF) (Homo sapiens, UniProt P05230); assay: aFGF/Matrigel-induced swelling (tumor-like matrix) in nude mice; format: in vivo, BALBc nude mice; conditions: osmotic minipump, 0.4 g/ml, 14 days
T1 construct: purchased Sigma (USA)
T1 sequence (P05230 whole entry, species assumed): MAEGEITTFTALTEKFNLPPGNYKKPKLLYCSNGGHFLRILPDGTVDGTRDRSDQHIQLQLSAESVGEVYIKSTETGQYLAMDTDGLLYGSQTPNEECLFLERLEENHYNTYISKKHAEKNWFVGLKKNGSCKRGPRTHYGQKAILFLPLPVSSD
Experimental: Fibroblast growth factor acidic (aFGF) from Sigma (USA), was diluted in a buffer, RPMI-1640 (Life Technologies, UK). 25 μg of aFGF was diluted in 125 μl buffer and 50 μl was transferred to a small Eppendorf tube. 150 μl of Matrigel® basement membrane matrix from Becton and Dickinson (UK) was added to the tube and the content was thoroughly mixed for 60 minutes. All equipment was sterilized by irradiation or autoclaving (115° C. in 10 minutes) before use and all procedures were performed at 7° C. The mixture was kept in an icebath before the animal experiment.
Ten female, specific pathogen free BALBc nude mice with a weight of 18-22 g were maintained in autoclaved type III makrolon cages with filter tops in horizontal air flow cabinets in a barrier unit equipped with HEPA filters. Autoclaved bedding, irradiated feed and sterile filtered water was used. Temperature and humidity was kept constant at 22±2° C., 65±5 RH.
When fibroblast growth factor (FGF) and Matrigel® is mixed and inovulated to nude mice, developments of a swelling process ressembling tumor begin to develop.
A portion of the mixture of Matrigel® and a FGF was inoculated subcutaneously by a 23 G needle in the right flank of the mice. Two days before all mice were surgically prepared with osmotic minipumps (Alzet, model 2002).
To another group of five mice saline was administered as a control group.

[3] = test system: fibroblast growth factor basic (bFGF); assay: bFGF/Matrigel-induced swelling (tumor-like matrix) in nude mice; format: in vivo
Experimental: In a procedure similar to example 3 fibroblast growth factor basic (bFGF) was used.
D-myo-inositol-1,2,6-trisphosphate (IP3) was administered to five mice while another group of five mice, recieving saline, were a control group.

scarr formation on skin = assay: Scar formation on scratches of the epidermis of a human hand, topical application; format: in vivo; conditions: topical solution, observation over 10 days
Experimental: To two of the scratches a solution comprising IP3 was applied topically while two of the scratches served as controls. Occular investigation was performed every day over a period of 10 days.

[4] = test system: phosphatidyl inositol 3′ kinase (PI 3′-kinase); assay: Interstitial fluid pressure (PIF) in rat hind paw, wortmannin-induced decrease; format: in vivo, Wistar Möller rats; conditions: 5 μg in 0.1 ml intravenous before wortmannin
Text: The enzyme phosphatidyl inositol 3′ kinase (PI 3′-kinase) is implicated in a number of growth factor induced responses such as mitogenesis, chemotaxis, membrane ruffling and the balance between osteoclasts and osteoblasts. Furthermore it is known that inactivation of PI 3′ kinase leads to increased oedema formation expressed as a decrease of interstitial fluid pressure (PIF) in animal models.
An inhibitor of PI 3′ kinase such as wortmannin renders a decrease of PIF as a consequence of inactivation of PI 3′ kinase.
The measurements were performed on female Wistar Möller rats (200-250 g), anesthetized with pentobarbital (50 mg/kg i.p.).
PIF was measured on the dorsal side of the hind paw with sharpened glass capillarier (tip diameter 2-7 μm) filled with 0.5 M NaCl coloured with Evans Blue and connected to a serve-controlled counter pressure system. The punctures were performed through intact skin using a stereomicroscope. The pipette-tip was located 0.3-0.5 mm below the skin. Pressure measurements were made 2.5-3.0 mm from the center of injection. The normal transcapillary pressure gradient is about 0.5 mm Hg.
Three sets of experiments were performed with six animals in each set.
In the first set of experiment the vehicle for wortmannin, DMSO diluted in saline, 5 μl, was injected subdermally using a chromatography syringe. […]

## O=P(O)(O)OC1C(O)C(O)C(O)C(OP(=O)(O)O)C1OP(=O)(O)O [IP3, D-myo-inositol-1,2,6-trisphosphate]
[1]
  interaction between NGF and IP3: strong interaction
[2]; Day 1
  volume of the formed matrix: 150 mm^3
[2]; Day 4
  volume of the formed matrix: 125 mm^3
[2]; Day 5
  volume of the formed matrix: 90 mm^3
[2]; Day 6
  volume of the formed matrix: 50 mm^3
[2]; Day 7
  volume of the formed matrix: 50 mm^3
[2]; Day 8
  volume of the formed matrix: 70 mm^3
[2]; Day 9
  volume of the formed matrix: 70 mm^3
[3]; Day 1
  volume of the formed matrix: 180 mm^3
[3]; Day 3
  volume of the formed matrix: 120 mm^3
[3]; Day 5
  volume of the formed matrix: 110 mm^3
[3]; Day 7
  volume of the formed matrix: 120 mm^3
[3]; Day 8
  volume of the formed matrix: 110 mm^3
[3]; Day 9
  volume of the formed matrix: 120 mm^3
[3]; group where IP3 was administered
  histological examinations of the animals: anti-angiogenic effects
Scarr formation on skin
  scarr formation compared to the control: formed scarr in a delayed manner
[4]
  effect of pretreatment on wortmannin-induced decrease in PIF: abolished decrease in PIF
